In US20250302833A1, “PHARMACEUTICAL COMPOSITION FOR TREATING OR PREVENTING CYSTIC DISEASE” (CHUGAI SEIYAKU KABUSHIKI KAISHA, priority 2022, published 2025):

What was measured:
Type in all cases: cell-based
human NaPi-IIb = molecular target: T1, human NaPi-IIb (Homo sapiens, UniProt O95436); assay: 33PO4 uptake inhibition in CHO cells expressing human NaPi-IIb; details: CHO cells transiently expressing human NaPi-IIb, pH 6.5
T1 construct: expressed in transfected cells; host or cells: CHO cells, transient transfection with Fugene HD
T1 sequence (O95436 1-690): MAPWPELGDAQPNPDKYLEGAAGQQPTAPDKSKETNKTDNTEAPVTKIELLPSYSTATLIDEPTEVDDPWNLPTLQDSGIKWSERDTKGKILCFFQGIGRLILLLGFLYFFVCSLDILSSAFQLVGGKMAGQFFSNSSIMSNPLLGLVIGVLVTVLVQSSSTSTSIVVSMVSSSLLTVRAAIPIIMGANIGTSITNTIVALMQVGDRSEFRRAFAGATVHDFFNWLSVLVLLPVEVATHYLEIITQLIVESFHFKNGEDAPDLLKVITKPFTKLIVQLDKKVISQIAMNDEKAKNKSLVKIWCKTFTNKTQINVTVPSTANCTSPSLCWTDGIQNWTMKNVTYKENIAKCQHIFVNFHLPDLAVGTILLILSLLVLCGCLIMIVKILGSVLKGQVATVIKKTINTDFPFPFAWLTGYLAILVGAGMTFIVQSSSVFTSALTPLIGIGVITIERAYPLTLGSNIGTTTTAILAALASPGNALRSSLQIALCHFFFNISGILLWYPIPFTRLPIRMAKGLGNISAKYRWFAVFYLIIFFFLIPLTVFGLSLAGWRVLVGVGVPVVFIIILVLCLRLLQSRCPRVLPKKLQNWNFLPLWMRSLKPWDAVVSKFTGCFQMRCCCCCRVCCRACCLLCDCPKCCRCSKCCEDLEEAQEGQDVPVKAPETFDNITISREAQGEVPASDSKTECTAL
Protocol: For transient expression, human NaPi-IIb expression plasmids, human PiT1 expression plasmids, human PiT2 expression plasmids, and Fugene HD Transfection (Promega Corporation) were added to CHO cells using a 96-well plate, and the plate was incubated in a C02 incubator for 16 hours. The medium was replaced with buffer A (145 mM choline chloride, 3 mM KCl, 1 mM CaCl2), 0.5 mM MgCl2, 5 mM glucose, 5 mM MES, (pH 6.5)), and then replaced with buffer B (145 mM NaCl, 3 mM KCl, 1 mM CaCl2, 0.5 mM MgCl2, 5 mM glucose, 5 mM MES (pH 6.5)) to which a test compound was added at the final concentration of 0.01, 0.03, 0.1, 0.3, 1, 3, 10, or 30 μM, buffer A to which DMSO was added, or buffer B to which DMSO was added. After a certain time, a 1/20 amount of buffer A containing ^33PO4 (PerkinElmer Japan G. K.) was added and reacted at room temperature. After washing with ice-cooled buffer A, a liquid scintillator (MicroScint™-20, item number 6013621, PerkinElmer Japan G.K.) was added, and the ^33PO4 uptake amount was measured with the top count (Top Count NXT, PerkinElmer Japan G.K.). The inhibition rate was determined by the following formula. Here, a certain time was set to 10 minutes. The phrase “a 1/20 amount of buffer A containing ^33PO4 (PerkinElmer Japan G.K.) was added” refers to “buffer A containing ^33PO4 (PerkinElmer Japan G.K.) was added in an amount of 1/20 of the amount of solution filling the medium”.
The 50% ^33PO4-uptake inhibition concentrations (ICs) (UM) in a cell expressing human NaPi-Ilb, human PiT1, and human PiT2 were calculated from a straight line through two points sandwiching 50% inhibition rate. It should be noted that compounds 1 and 2 were not measured for baman PiT1 and human PiT2, which was indicated as “-” in Table 1.

human PiT1 = molecular target: T2, human PiT1 (Homo sapiens, UniProt Q8WUM9); assay: 33PO4 uptake inhibition in CHO cells expressing human PiT1; details: CHO cells transiently expressing human PiT1, pH 6.5
T2 construct: expressed in transfected cells; host or cells: CHO cells, transient transfection with Fugene HD
T2 sequence (Q8WUM9 1-679): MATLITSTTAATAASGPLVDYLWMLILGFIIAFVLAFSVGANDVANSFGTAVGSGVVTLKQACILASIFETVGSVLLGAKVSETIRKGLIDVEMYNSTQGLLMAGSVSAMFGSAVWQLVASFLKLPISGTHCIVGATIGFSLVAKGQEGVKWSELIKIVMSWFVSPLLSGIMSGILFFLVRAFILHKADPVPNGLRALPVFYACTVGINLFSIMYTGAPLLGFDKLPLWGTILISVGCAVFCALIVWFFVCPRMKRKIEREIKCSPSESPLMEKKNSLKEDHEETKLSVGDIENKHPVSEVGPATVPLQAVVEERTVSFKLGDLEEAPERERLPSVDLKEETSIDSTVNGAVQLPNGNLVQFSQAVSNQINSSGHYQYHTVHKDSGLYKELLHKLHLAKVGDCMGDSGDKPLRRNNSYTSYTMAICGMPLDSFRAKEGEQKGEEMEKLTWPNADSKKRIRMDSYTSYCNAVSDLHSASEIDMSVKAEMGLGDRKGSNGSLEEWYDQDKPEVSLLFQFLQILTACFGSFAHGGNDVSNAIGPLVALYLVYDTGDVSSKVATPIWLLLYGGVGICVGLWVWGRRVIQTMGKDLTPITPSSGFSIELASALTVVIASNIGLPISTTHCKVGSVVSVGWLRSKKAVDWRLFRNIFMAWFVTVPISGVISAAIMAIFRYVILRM
Protocol: (§1) For transient expression, human NaPi-IIb expression plasmids, human PiT1 expression plasmids, human PiT2 expression plasmids, and Fugene HD Transfection (Promega Corporation) were added to CHO cells using a 96-well plate, and the plate was incubated in a C02 incubator for 16 hours. The medium was replaced with buffer A (145 mM choline chloride, 3 mM KCl, 1 mM CaCl2), 0.5 mM MgCl2, 5 mM glucose, 5 mM MES, (pH 6.5)), and then replaced with buffer B (145 mM NaCl, 3 mM KCl, 1 mM CaCl2, 0.5 mM MgCl2, 5 mM glucose, 5 mM MES (pH 6.5)) to which a test compound was added at the final concentration of 0.01, 0.03, 0.1, 0.3, 1, 3, 10, or 30 μM, buffer A to which DMSO was added, or buffer B to which DMSO was added. After a certain time, a 1/20 amount of buffer A containing ^33PO4 (PerkinElmer Japan G. K.) was added and reacted at room temperature. After washing with ice-cooled buffer A, a liquid scintillator (MicroScint™-20, item number 6013621, PerkinElmer Japan G.K.) was added, and the ^33PO4 uptake amount was measured with the top count (Top Count NXT, PerkinElmer Japan G.K.). The inhibition rate was determined by the following formula. Here, a certain time was set to 10 minutes. […]

human PiT2 = molecular target: T3, human PiT2 (Homo sapiens, UniProt Q08357); assay: 33PO4 uptake inhibition in CHO cells expressing human PiT2; details: CHO cells transiently expressing human PiT2, pH 6.5
T3 construct: expressed in transfected cells; host or cells: CHO cells, transient transfection with Fugene HD
T3 sequence (Q08357 1-652): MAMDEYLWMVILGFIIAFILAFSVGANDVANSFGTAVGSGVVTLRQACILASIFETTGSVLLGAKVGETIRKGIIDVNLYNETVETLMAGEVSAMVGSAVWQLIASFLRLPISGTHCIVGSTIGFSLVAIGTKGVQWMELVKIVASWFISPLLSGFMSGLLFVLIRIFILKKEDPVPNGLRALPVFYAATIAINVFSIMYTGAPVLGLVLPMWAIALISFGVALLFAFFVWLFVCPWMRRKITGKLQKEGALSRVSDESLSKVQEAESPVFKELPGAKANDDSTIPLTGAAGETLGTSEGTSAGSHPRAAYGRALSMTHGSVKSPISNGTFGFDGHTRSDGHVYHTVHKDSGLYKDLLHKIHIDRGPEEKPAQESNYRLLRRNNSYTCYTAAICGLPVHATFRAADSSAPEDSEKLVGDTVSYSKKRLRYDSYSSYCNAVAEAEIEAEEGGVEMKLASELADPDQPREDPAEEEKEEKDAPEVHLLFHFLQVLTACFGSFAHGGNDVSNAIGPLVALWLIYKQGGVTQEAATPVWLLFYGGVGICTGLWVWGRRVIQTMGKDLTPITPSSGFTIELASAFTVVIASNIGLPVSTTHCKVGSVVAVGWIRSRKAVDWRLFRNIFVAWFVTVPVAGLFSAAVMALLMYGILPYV
Protocol: as §1

[1] = system: primary cells from kidney tissues of human ADPKD patients; assay: Inhibition of three-dimensional cyst formation using primary cells from kidney tissue of human ADPKD patient; details: 168 h, test compound 30 μM, forskolin + ITS stimulation, 7 days 3D culture, average N=3, read-out: Inhibition rate (%) of cyst formation
Protocol: Primary cells were isolated from kidney tissues of human ADPKD patients. Under two-dimensions, the isolated cells were cultured for 2 days using DMEM/F-12 (Thermo Fisher Scientific, Inc.) supplemented with 10% FBS. Subsequently, three-dimensional culture was performed for 7 days using 3D Ready Atelocollagen (KOKEN CO., LTD.). During three-dimensional culture, 50 µM forskolin (Sigma-Aldrich Co. LLC) and ITS liquid media supplements (Sigma-Aldrich Co. LLC) were added as stimulating agents to some of the wells to form cysts, and a test compound was added at the final concentration of 30 μM. The test compound was also added to other wells at the final concentration of 30 μM. After 7 days of three-dimensional culture, it was fixed with 4% paraformaldehyde (Thermo Fisher Scientific, Inc.), and nucleic acid staining and cell membrane staining were performed with Hoechst 33342 (Thermo Fisher Scientific, Inc.) and CellLight Plasma Membrane-RFP, BacMam 2.0 (Thermo Fisher Scientific, Inc.). Three-dimensional imaging and volume analysis were performed using Operetta CLS and image analysis software Harmony (PerkinElmer Japan G.K.). The inhibition rate was determined by the following formula.

| IC50 (human NaPi-IIb) | IC50 (human PiT1) | IC50 (human PiT2) | SMILES | inhibition at 30 µM [1] |
| --- | --- | --- | --- | --- |
| 3.8 µM | > 30 µM | > 30 µM | O=C(Nc1ccc(Cl)cc1C(=O)c1cnn(-c2ccc(Cl)c(C(F)(F)F)c2)c1)c1cccc(CN2CCC(N3CCCCC3)CC2)c1 [Compound 3, N-[4-Chloro-2-[1-[4-chloro-3-(trifluoromethyl)phenyl]pyra-zole-4-carbonyl]phenyl]-3-[(4-piperidin-1-ylpiperidin-1-yl)methyl]benzamide] | 100% |
| 2.9 µM | – | – | C[C@]12CCCN1N(Cc1cccc(Cl)c1F)C(=O)C(C(=O)Nc1cc(F)c(Br)c(F)c1)=C2O [Compound 2, (4aR)-N-(4-Bromo-3,5-difluorophenyl)-1-[(3-chloro-2-fluorophenyl)methyl]-4-hydroxy-4a-methyl-2-oxo-6,7-dihydro-5H-pyrrolo[1,2-b]pyridazine-3-carboxamide] | 100% |
| 7.9 µM | – | – | O=c1[nH]nc(Sc2ccc(C(F)(F)F)cn2)n1-c1cc(Cl)c(Cl)cc1C(F)(F)F [Compound 1, 4-[4,5-Dichloro-2-(trifluoromethyl)phenyl]-3-[5-(trifluoromethyl)pyridin-2-yl]sulfanyl-1H-1,2,4-triazol-5-one] | 98.2% |
